Test results from patent US20140273094A1, “METHODS OF ENHANCING PROTEIN QUALITY AND QUANTITY BY YEAST FED-BATCH FERMENTATION” (BRISTOL-MYERS SQUIBB COMPANY, priority 2013, published 2014).

Tested on: P. pastoris
Assay: Effect of hydroxyurea on cell growth and antibody productivity in fed-batch fermentation, Run 01MAY11
Format: cell-based, Pichia pastoris
Experimental: The glucose and ethanol were measured by YSI 2700 (YSI Incorporated, Yellow Springs, Ohio), O2 and CO2 of the exhaust line were measured by Questor GP Process Mass Spectrometer (ABB Extrel, Pittsburgh, Pa.) and the RQ value was calculated using below Equation [1]. The wet cell weight (WCW) was measured by centrifuging 1 milliliter (mL) fermentation broth at 13,200 rpm for 10 minutes, weighing pellet, and calculated ratio of pellets weight (g) over volume (mL). The supernatant titer (g/L) was measured by the HPLC method and the whole broth (WB) titer was then calculated by below Equation [2].
WB_Titer=Supernatant_Titer*(1−WCW/1000)
The treatment cultures were operated the same way plus adding hydroxyurea 5 hours after feed start.

Question: For `NC(=O)NO` [Hydroxyurea], which “average whole broth titer” value (90 hours run time, three hydroxyurea treatment lots) is on record?
Answer: 75 normalized units

Question: What about the “WCW reached and maintained by hydroxyurea treatment lots” value (after peak cell density at 30-40 hours, control lots ~400 g/Kg) of the same molecule?
Answer: ~450 g/kg
